Data published in article PMC9024597, “The Biological Fate of a Novel Anticancer Drug Candidate TNBG-5602: Metabolic Profile, Interaction with CYP450, and Pharmacokinetics in Rats” (Molecules, 2022).

What was measured:
cancer cells and tissues = tested on: cancer cells and tissues; parameters: method as in PMID 31446646; details: oil red O staining; cited from earlier work
CYP3A4 = target: T1, CYP3A4 (Homo sapiens, UniProt P08684); assay: IC50 assessment using recombinant human CYPs (probe testosterone); type: in vitro ADME; details: recombinant CYP 0.025 μM, testosterone 0.05 mg mL^−1, 37 °C, 30 min, n = 3; read-out: IC50 against CYP3A4
T1 construct: purchased IPHASE
Procedure: (§1) Figure 12 The inhibition curves for TNBG-5602 against cytochrome enzymes (mean ± SD, n = 3). TNBG-5602 (final concentrations of 0, 0.01, 0.1, 1.0, 10.0, and 100 μM) was incubated with recombinant cytochrome P450s (final concentration 0.025 μM) and the specific probe substates (final concentration 0.05 mg mL^−1) with NADPH to initiate the metabolic reaction. The incubations were carried out at 37 °C for 30 min with a total volume of 200 μL. The CYP isoforms tested were 2D6 (dextromethorphan), 2C9 (tolbutamide), and 3A4 (testosterone). […] The IC50 values were calculated using the GraphPad Prism statistical software (Version 8) by nonlinear regression analysis.
(§2) The LC-MS/MS instrument was the same as the system used to determine TNBG-5602. The mobile phase consisted of 0.1% formic acid, aqueous solution (Solvent A), and acetonitrile (Solvent B) at a flow rate of 0.3 mL min^−1. […]
(§3) For IC50 assessment, the inhibition curves were established by nonlinear regression analysis plotting the relative activity (y) versus the logarithm of the TNBG-5602 concentration (x). The inhibition curve and the half-maximal inhibitory concentration of TNBG-5602 against each CYP isoform were analyzed using the GraphPad Prism statistical software (version 8). […]

[1] = tested on: five human cancer cell lines; parameters: method as in PMID 35541052; details: cited from earlier work
CYP2D6 = target: T2, CYP2D6 (Homo sapiens, UniProt P10635); assay: IC50 assessment using recombinant human CYPs (probe dextromethorphan); type: in vitro ADME; details: recombinant CYP 0.025 μM, dextromethorphan 0.05 mg mL^−1, 37 °C, 30 min, n = 3; read-out: IC50 against CYP2D6
T2 construct: purchased IPHASE
Procedure: as §1, §2, §3

[2] = Stability of TNBG-5602 rat plasma samples on storage and freeze-thaw; type: in vitro ADME; details: stored at −20 and −80 °C
CYP2C9 = target: T3, CYP2C9 (Homo sapiens, UniProt P11712); assay: IC50 assessment using recombinant human CYPs (probe tolbutamide); type: in vitro ADME; details: recombinant CYP 0.025 μM, tolbutamide 0.05 mg mL^−1, 37 °C, 30 min, n = 3; read-out: IC50 against CYP2C9
T3 construct: purchased IPHASE
Procedure: as §1, §2, §3

liver cancer cells = tested on: liver cancer cells; parameters: method as in PMID 31446646; details: cited from earlier work

T2 sequence (P10635 whole entry): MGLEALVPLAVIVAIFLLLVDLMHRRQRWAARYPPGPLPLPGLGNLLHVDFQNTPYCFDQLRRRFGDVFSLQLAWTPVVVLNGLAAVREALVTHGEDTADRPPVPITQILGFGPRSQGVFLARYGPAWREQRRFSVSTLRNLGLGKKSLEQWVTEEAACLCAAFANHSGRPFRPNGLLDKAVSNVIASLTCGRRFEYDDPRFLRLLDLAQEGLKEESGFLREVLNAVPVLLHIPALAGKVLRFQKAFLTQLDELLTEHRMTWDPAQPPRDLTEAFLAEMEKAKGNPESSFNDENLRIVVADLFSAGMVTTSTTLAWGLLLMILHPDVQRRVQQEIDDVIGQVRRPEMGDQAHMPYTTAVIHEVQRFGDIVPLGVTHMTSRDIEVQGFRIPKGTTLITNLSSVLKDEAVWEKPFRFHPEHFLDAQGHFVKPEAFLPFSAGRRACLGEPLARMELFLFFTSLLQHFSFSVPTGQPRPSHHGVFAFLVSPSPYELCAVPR
T1 sequence (P08684 whole entry): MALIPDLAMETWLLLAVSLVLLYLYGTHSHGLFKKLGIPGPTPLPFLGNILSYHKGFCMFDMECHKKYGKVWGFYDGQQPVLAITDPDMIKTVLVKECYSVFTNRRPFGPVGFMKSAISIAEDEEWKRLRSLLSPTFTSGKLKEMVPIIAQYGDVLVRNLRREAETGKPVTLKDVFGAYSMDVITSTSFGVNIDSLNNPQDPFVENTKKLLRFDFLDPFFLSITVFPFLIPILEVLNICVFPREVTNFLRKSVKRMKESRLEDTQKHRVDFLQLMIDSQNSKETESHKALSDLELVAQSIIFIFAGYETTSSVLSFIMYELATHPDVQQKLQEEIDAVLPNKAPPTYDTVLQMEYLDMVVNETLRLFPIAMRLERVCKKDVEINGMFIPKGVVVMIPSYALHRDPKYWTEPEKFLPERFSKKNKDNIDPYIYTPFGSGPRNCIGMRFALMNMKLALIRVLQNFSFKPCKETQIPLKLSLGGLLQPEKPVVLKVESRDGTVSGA
T3 sequence (P11712 whole entry): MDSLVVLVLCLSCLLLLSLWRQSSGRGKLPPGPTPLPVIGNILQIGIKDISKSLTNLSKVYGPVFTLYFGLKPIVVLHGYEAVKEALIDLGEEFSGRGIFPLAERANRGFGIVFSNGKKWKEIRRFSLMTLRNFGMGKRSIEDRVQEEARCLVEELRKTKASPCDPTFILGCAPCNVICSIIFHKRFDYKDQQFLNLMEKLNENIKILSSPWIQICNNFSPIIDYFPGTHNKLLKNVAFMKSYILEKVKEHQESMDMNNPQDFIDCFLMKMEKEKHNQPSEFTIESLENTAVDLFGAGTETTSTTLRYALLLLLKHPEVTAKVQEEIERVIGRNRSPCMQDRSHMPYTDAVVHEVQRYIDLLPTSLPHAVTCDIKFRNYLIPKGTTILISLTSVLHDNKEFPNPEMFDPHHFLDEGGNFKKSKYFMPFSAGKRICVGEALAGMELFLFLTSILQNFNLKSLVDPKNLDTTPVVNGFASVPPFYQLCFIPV

IC50 (CYP3A4): 18.7 µM
IC50 (CYP2D6): 2.52 µM
time plasma samples were stable on storage [2]: at least 90 days
IC50 (CYP2C9): 9.63 µM
Structure (SMILES): CN(C)CCN1CC2c3ccccc3CCN2c2nc3ccccc3nc21 (stereo not shown) [TNBG-5602]
lipid accumulation in cancer cells and tissues (cancer cells and tissues): selectively cause lipid accumulation
inhibitory activity against five human cancer cell lines [1]: strong inhibitory activity
inhibition of proliferation of liver cancer cells in vitro (liver cancer cells): effectively inhibited the proliferation
